Three molecules from patent publication US10782295B2, “Cysteine-reactive ligand discovery in proteomes” (THE SCRIPPS RESEARCH INSTITUTE, priority 2013, dated 2020) can be followed below.

The structures appear in SMILES notation. Bounds are passed on as bounds.

A short description of assay [1]: competitive isoTOP-ABPP, proteome-wide cysteine reactivity. The following applies: for proteome reactivity profile, high sensitivity (R>5) cysteine targets: 100 μM LDE, 60 min. It is filed as binding, human. As to the method:
(§1) Here, we envisioned that isoTOP-ABPP could be advanced to discover and quantify reactions between cysteines in proteomes and any electrophilic compound. In this advanced, ‘competitive’ version of isoTOP-ABPP (FIG. 1a), a proteome is treated with an electrophile (experimental sample) or DMSO (control sample). Both proteomic samples are then labeled with the IA probe and conjugated by CuAAC to light and heavy azide-biotin tags, respectively. The light and heavy samples are then mixed and subjected to our described isoTOP-ABPP protocol for enrichment, identification, and quantification of IA-labeled cysteines^30. Electrophile-modified cysteines are quantified by measuring the MS1 chromatographic peak ratios (R values) for heavy (DMSO-treated) over light (electrophile-treated) samples, with higher R values reflecting greater sensitivity to the electrophile. In this format, competitive isoTOP-ABPP can assay electrophiles against 1000+ cysteines in parallel directly in native proteomes without requiring any chemical modification to the electrophiles themselves.
(§2) Competitive isoTOP-ABPP experiments were performed in quadruplicate using the soluble proteome of the human breast cancer cell line MDA-MB-231 cell line. Proteomes were treated with 100 μM HNE, 15d-PGJ2, or 2-HD, for 60 minutes, followed by the IA-probe (100 μM, 60 min) A total of ˜1400 cysteine reactivities were quantified across the aggregate data set, with at least 900 cysteine reactivities quantified for each LDE (FIG. 2a) more than 750 of which were quantified for all the three electrophiles.
The MDA-MB-231 cell proteome was treated with varying concentrations of HNE (5, 10, 50, 100 and 500 μM) for 60 min and then the IA-labeling profile of each reaction was quantitatively compared to a DMSO-control sample by isoTOP-ABPP.
By combining the R values at all 5 HNE concentrations, we could extrapolate IC50 values for […] of IA probe-labeling for ˜700 of the 1100 cysteines (FIG. 3a).
HNE was purchased from EMD biosciences, 15d-PGJ2 was purchased from Cayman Chemicals and 2-HD was purchased from Santa Cruz Biotechnology. Proteome samples were diluted to a 4 mg protein/mL solution in PBS. For each profiling experiment, one aliquot of the proteome sample (0.5 mL) was treated with 100 μM of LDE using 5 μL of a 10 mM stock and the other aliquot was treated with 5 μL of either ethanol (for HNE and 15d-PGJ2) or DMSO (for 2-HD) as control. For the concentration-dependent profiling experiments using HNE, aliquots of the proteomes (0.5 mL each) were treated with 5, 10, 50, 100 and 500 μM of HNE using 5 μL of 0.5, 1.0, 5, 10 and 50 mM of stock solution, respectively. […]

Another assay concerns the target T1, MAP2K6 (Homo sapiens, UniProt P52564).
T1 construct: directly in native proteomes; endogenous in cells; host or cells: MDA-MB-231
T1 sequence (P52564 1-334): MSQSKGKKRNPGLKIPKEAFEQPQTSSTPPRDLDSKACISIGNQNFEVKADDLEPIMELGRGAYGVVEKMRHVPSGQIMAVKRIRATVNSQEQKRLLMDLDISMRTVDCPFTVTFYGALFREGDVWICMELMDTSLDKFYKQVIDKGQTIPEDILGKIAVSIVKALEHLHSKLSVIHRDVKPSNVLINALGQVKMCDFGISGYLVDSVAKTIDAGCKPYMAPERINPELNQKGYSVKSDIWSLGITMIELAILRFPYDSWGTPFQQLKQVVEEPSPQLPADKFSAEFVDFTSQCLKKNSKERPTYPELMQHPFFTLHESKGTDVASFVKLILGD
In words: competitive isoTOP-ABPP, MDA-MB-231 soluble proteome. It is filed as binding. The following applies: 100 μM LDE, 60 min; peptide MC*DFGISGYLVDSVAK
Here is the method:
as §1, §2
(§3) HNE was purchased from EMD biosciences, 15d-PGJ2 was purchased from Cayman Chemicals and 2-HD was purchased from Santa Cruz Biotechnology. Proteome samples were diluted to a 4 mg protein/mL solution in PBS. For each profiling experiment, one aliquot of the proteome sample (0.5 mL) was treated with 100 μM of LDE using 5 μL of a 10 mM stock and the other aliquot was treated with 5 μL of either ethanol (for HNE and 15d-PGJ2) or DMSO (for 2-HD) as control. For the concentration-dependent profiling experiments using HNE, aliquots of the proteomes (0.5 mL each) were treated with 5, 10, 50, 100 and 500 μM of HNE using 5 μL of 0.5, 1.0, 5, 10 and 50 mM of stock solution, respectively. After 60 minutes of treatment at room temperature, both the LDE-treated and control aliquots were passed through a NAP-5 Sephadex column (GE healthcare) to remove any unreacted LDE. The volume of each aliquot was increased to 1 mL with the concentration at 2 mg/mL after this step.
(§4) Each of the control and LDE-treated proteome samples (˜2 mg protein/mL in 1 mL volume) was treated with 100 μM of IA-probe using 10 μL of a 10 mM stock in DMSO. The labeling reactions were incubated at room temperature for 1 hour. Click chemistry (acetylene-azide cycloaddition) was performed by the addition of 100 μM of either the Heavy-TEV-Tag (for the control sample) or Light-TEV-Tag (for the LDE-treated sample) (20 μL of a 5 mM stock), 1 mM TCEP (fresh 50× stock in water), 100 μM ligand (17× stock in DMSO:t-Butanol 1:4) and 1 mM CuSO4 (50× stock in water). Samples were allowed to react at room temperature for 1 hour. After the click chemistry step, the light and heavy-labeled samples were mixed together and centrifuged (5900×g, 4 min, 4° C.) to pellet the precipitated proteins.
(§5) The pellets were washed twice in cold MeOH, after which the pellet was solubilized in PBS containing 1.2% SDS via sonication and heating (5 min, 80° C.). Samples were subjected to streptavidin enrichment of probe-labeled proteins, sequential on-bead trypsin and TEV digestion, and liquid chromatography-mass spectrometry (LC-MS) analysis according to the published isoTOP-ABPP protocol^30.
(§6) IA-probe labeled peptides were identified by SEQUEST2 and DTASelect3, and the quantification of heavy/light ratios (isoTOP-ABPP ratios, R) was performed by an in-house software (CIMAGE) as previously described. […]

For another assay, the target named is T2, IDH1 (Homo sapiens, UniProt O75874).
T2 construct: directly in native proteomes; endogenous in cells; host or cells: MDA-MB-231
T2 sequence (O75874 whole entry): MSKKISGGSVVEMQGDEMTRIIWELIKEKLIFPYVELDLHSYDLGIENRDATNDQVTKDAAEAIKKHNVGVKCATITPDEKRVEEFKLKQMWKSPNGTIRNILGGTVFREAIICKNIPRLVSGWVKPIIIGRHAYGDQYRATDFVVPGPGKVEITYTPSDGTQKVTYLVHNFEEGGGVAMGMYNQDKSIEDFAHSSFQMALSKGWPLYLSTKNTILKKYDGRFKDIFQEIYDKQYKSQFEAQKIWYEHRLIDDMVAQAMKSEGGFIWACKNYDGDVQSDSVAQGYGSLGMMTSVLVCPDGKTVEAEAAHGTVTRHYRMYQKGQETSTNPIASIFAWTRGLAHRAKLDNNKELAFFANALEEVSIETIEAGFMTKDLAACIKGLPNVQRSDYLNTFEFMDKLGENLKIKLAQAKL
Described as above. The following applies: 100 μM LDE, 60 min; peptide SEGGFIWAC*K. The assay is classed as binding. Here is the method: as §1, §2, §3, §4, §5, §6

With `CCCCCCCCCCCCC/C=C/C=O` [2-HD, 2-trans-hexadecenal], the “proteome reactivity profile, high sensitivity (R>5) cysteine targets” value (shortened to “proteome reactivity profile”) in assay [1] is listed as “no detectable high sensitivity (R>5) targets”. Also, on MAP2K6, the “R value (isoTOP-ABPP ratio heavy/light) for IA-labeled cysteine of MAP2K6” value worked out at 1.15. Besides, the “R value (isoTOP-ABPP ratio heavy/light) for IA-labeled cysteine of IDH1” value at IDH1 turned out to be 1.13.

On to `CCCCCC(O)/C=C/C=O` (stereo not shown) [4-HNE, 4-Hydroxynonenal], for which the “proteome reactivity profile” value in assay [1] is “targeting several cysteines in the proteome”. Further, the IC50 in assay [1] (~700 of 1100 cysteines, 5 HNE concentrations, read-out: IC50 for blockade of IA probe-labeling, vast majority of cysteines) is more than 100 µM. For the same molecule, the “R value (isoTOP-ABPP ratio heavy/light) for IA-labeled cysteine of MAP2K6” value at MAP2K6 was found to be 1.9. Also, the “R value (isoTOP-ABPP ratio heavy/light) for IA-labeled cysteine of IDH1” value at IDH1 was 1.3.

With `CCCCC/C=C/C=C1/C(=O)C=C[C@@H]1C/C=C\CCCC(=O)O` [PGJ2, 15-deoxy-Δ12,14-prostaglandin J2], the “proteome reactivity profile” value in assay [1] was “targeting several cysteines in the proteome”. In addition, the “R value (isoTOP-ABPP ratio heavy/light) for IA-labeled cysteine of MAP2K6” value at MAP2K6 is 7.43. The “R value (isoTOP-ABPP ratio heavy/light) for IA-labeled cysteine of IDH1” value on IDH1 was 6.66.

As usually defined, the IC50 is the concentration that inhibits the measured activity by half.
